From US10047086B2, “Imidazopyridines and imidazopyrazines as LSD1 inhibitors” (Incyte Corporation, priority 2014, dated 2018) come the findings set out here.

In this experiment the target is LSD-1 enzyme (Homo sapiens (Human), UniProt O60341). Nature of the experiment: LANCE LSD1/KDM1A demethylase assay (LSD1 histone demethylase biochemical assay). The settings on record: 1 nM LSD-1 enzyme, 1 hour preincubation at 25° C., 0.4 μM Biotin-labeled Histone H3 peptide substrate. The method, then:
LSD1 Histone Demethylase Biochemical Assay
LANCE LSD1/KDM1A demethylase assay-10 μL of 1 nM LSD-1 enzyme (ENZO BML-SE544-0050) in the assay buffer (50 mM Tris, pH 7.5, 0.01% Tween-20, 25 mM NaCl, 5 mM DTT) were preincubated for 1 hour at 25° C. with 0.8 μL compound/DMSO dotted in black 384 well polystyrene plates. […] Reactions were stopped by addition of 10 μL 1× LANCE Detection Buffer (PerkinElmer CR97-100) supplemented with 1.5 nM Eu-anti-unmodified H3K4 Antibody (PerkinElmer TRF0404), and 225 nM LANCE Ultra Streptavidin (PerkinElmer TRF102) along with 0.9 mM Tranylcypromine-HCl (Millipore 616431). After stopping the reactions plates were incubated for 30 minutes and read on a PHERAstar FS plate reader (BMG Labtech).
In general terms: Time-resolved FRET reads energy transfer from a long-lived donor to a nearby acceptor.

Broadly, the IC50 is the concentration that gives 50% inhibition. A lower IC50 goes with greater potency in that assay. `Cc1ncc(-c2c(-c3ccc(C#N)cc3)cc(OC[C@@H]3CCCN(C)C3)c3cncn23)cc1F` [Example 127, 4-(5-(5-fluoro-6-methylpyridin-3-yl)-8-{[(3R)-1-methylpiperidin-3-yl]methoxy}imidazo[1,5-a]pyridin-6-yl)benzonitrile] had a half-inhibitory concentration (IC50) of at most 50 nM.
`CN1C(=O)COc2cc(-c3c(-c4ccc(C#N)cc4)nc(N4CCC(N(C)C)CC4)c4cncn34)cnc21` [Example 105, 4-[8-[4-(dimethylamino)piperidin-1-yl]-5-(4-methyl-3-oxo-3,4-dihydro-2H-pyrido[3,2-b][1,4]oxazin-7-yl)imidazo[1,5-a]pyrazin-6-yl]benzonitrile] showed an IC50 of at most 50 nM.
To `CC(O)c1ccc(-c2c(-c3ccc(C#N)cc3)cc(OC[C@@H]3CCCN(C)C3)c3cncn23)cc1` (stereo partly drawn) [Example 123, 4-(5-[4-(1-hydroxyethyl)phenyl]-8-{[(3R)-1-methylpiperidin-3-yl]methoxy}imidazo[1,5-a]pyridin-6-yl)benzonitrile] belongs at most 50 nM; to `CN(C)C1CCN(c2nc(-c3ccc(C#N)cc3)c(-c3ccc4c(c3)ncn4C)n3cncc23)CC1` [Example 83, 4-[8-[4-(dimethylamino)piperidin-1-yl]-5-(1-methyl-1H-benzimidazol-5-yl)imidazo[1,5-a]pyrazin-6-yl]benzonitrile], at most 50 nM.
As to `CN1CCC[C@@H](COc2cc(-c3ccc(C#N)cc3)c(-c3ccc4nccnc4c3)n3cncc23)C1` [Example 56, (R)-4-(8-((1-methylpiperidin-3-yl)methoxy)-5-(quinoxalin-6-yl)imidazo[1,5-a]pyridin-6-yl)benzonitrile], the 50% inhibitory concentration (IC50) was at most 50 nM.
For `CN(C)C1CCN(c2nc(-c3ccc(C#N)cc3)c(-c3ccc4ncccc4c3)n3cncc23)CC1` [Example 145, 4-{8-[4-(dimethylamino)piperidin-1-yl]-5-quinolin-6-ylimidazo[1,5-a]pyrazin-6-yl}benzonitrile] the value was at most 50 nM; for `CN1CCC[C@@H](COc2cc(-c3ccc(C#N)cc3)c(-c3cc(F)c(CO)c(F)c3)n3cncc23)C1` [Example 73, (R)-4-(5-(3,5-difluoro-4-(hydroxymethyl)phenyl)-8-((1-methylpiperidin-3-yl)methoxy)imidazo[1,5-a]pyridin-6-yl)benzonitrile], at most 50 nM; for `CN(C)C1CCN(c2nc(-c3ccc(C#N)cc3)c(-c3ccc(OC(F)F)nc3)n3cncc23)CC1` [Example 98, 4-{5-[6-(difluoromethoxy)pyridin-3-yl]-8-[4-(dimethylamino)piperidin-1-yl]imidazo[1,5-a]pyrazin-6-yl}benzonitrile], at most 50 nM.
For `CN1CCOc2cc(-c3c(-c4ccc(C#N)cc4)cc(OC[C@@H]4CCNC4)c4cncn34)ccc21` [Example 14, 4-{5-(4-methyl-3,4-dihydro-2H-1,4-benzoxazin-7-yl)-8-[(3R)-pyrrolidin-3-ylmethoxy]imidazo[1,5-a]pyridin-6-yl}benzonitrile] the value was at most 50 nM; for `COCCN1CCC[C@@H](COc2nc(-c3ccc(C#N)cc3)c(-c3cnc4c(cnn4C)c3)n3cncc23)C1` [Example 40, 4-[8-{[(3R)-1-(2-methoxyethyl)piperidin-3-yl]methoxy}-5-(1-methyl-1H-pyrazolo[3,4-b]pyridin-5-yl)imidazo[1,5-a]pyrazin-6-yl]benzonitrile], at most 50 nM; for `CN1CCC[C@@H](COc2nc(-c3ccc(C#N)cc3)c(-c3cc4oc(=O)n(C)c4cc3F)n3cncc23)C1` [Example 30, 4-(5-(5-fluoro-3-methyl-2-oxo-2,3-dihydro-1,3-benzoxazol-6-yl)-8-{[(3R)-1-methylpiperidin-3-yl]methoxy}imidazo[1,5-a]pyrazin-6-yl)benzonitrile], at most 50 nM.
With `CN1CCN(Cc2ccc(-c3c(-c4ccc(C#N)cc4)cc(OC[C@@H]4CCNC4)c4cncn34)cc2)CC1` [Example 19, 4-{5-{4-[(4-methylpiperazin-1-yl)methyl]phenyl}-8-[(3R)-pyrrolidin-3-ylmethoxy]imidazo-[1,5-a]pyridin-6-yl}benzonitrile], the IC50 is at most 50 nM.
For `CN(C)C1CCN(c2nc(-c3ccc(C#N)cc3)c(-c3cnc4c(cnn4C)c3)n3cncc23)CC1` [Example 50, 4-[8-[4-(dimethylamino)piperidin-1-yl]-5-(1-methyl-1H-pyrazolo[3,4-b]pyridin-5-yl)imidazo[1,5-a]pyrazin-6-yl]benzonitrile] the value was at most 50 nM.
To `CN(C)C1CCN(c2nc(-c3ccc(C#N)cc3)c(-c3cnc4c(ccn4C)c3)n3cncc23)CC1` [Example 84, 4-(8-(4-(dimethylamino)piperidin-1-yl)-5-(1-methyl-1H-pyrrolo[2,3-b]pyridin-5-yl)imidazo[1,5-a]pyrazin-6-yl)benzonitrile] belongs at most 50 nM; to `CN1CCC[C@@H](COc2cc(-c3ccc(C#N)cc3)c(-c3cnc4c(c3)OCCO4)n3cncc23)C1` [Example 62, (R)-4-(5-(2,3-dihydro-[1,4]dioxino[2,3-b]pyridin-7-yl)-8-((1-methylpiperidin-3-yl)methoxy)imidazo[1,5-a]pyridin-6-yl)benzonitrile], at most 50 nM; to `CCN1CCC[C@@H](COc2cc(-c3ccc(C#N)cc3)c(-c3cc(C)c(CO)c(F)c3)n3cncc23)C1` [Example 128, 4-{8-{[(3R)-1-ethylpiperidin-3-yl]methoxy}-5-[3-fluoro-4-(hydroxymethyl)-5-methylphenyl]imidazo[1,5-a]pyridin-6-yl}benzonitrile], at most 50 nM.
To `Cc1ccc(-c2c(-c3ccc(C#N)cc3F)cc(OC[C@@H]3CCNC3)c3cncn23)cc1` [Example 5, 3-fluoro-4-{5-(4-methylphenyl)-8-[(3R)-pyrrolidin-3-ylmethoxy]imidazo[1,5-a]pyridin-6-yl}benzonitrile] belongs at most 50 nM.
The molecule `COCCN1CCC[C@@H](COc2cc(-c3ccc(C#N)cc3)c(-c3cnc4ccoc4c3)n3cncc23)C1` [Example 121, 4-(5-furo[3,2-b]pyridin-6-yl-8-{[(3R)-1-(2-methoxyethyl)piperidin-3-yl]methoxy}imidazo[1,5-a]pyridin-6-yl)benzonitrile] came in with an IC50 of at most 50 nM.
The molecule `Cc1cc(-c2c(-c3ccc(C#N)cc3)cc(OC[C@@H]3CCCN(C)C3)c3cncn23)cc(F)c1C(C)O` (stereo partly drawn) [Example 126, 4-(5-[3-fluoro-4-(1-hydroxyethyl)-5-methylphenyl]-8-{[(3R)-1-methylpiperidin-3-yl]methoxy}imidazo[1,5-a]pyridin-6-yl)benzonitrile] registered a half-inhibitory concentration (IC50) of at most 50 nM.
The molecule `CC(O)CN1CCC[C@@H](COc2cc(-c3ccc(C#N)cc3)c(-c3ccc4nccnc4c3)n3cncc23)C1` (stereo partly drawn) [Example 120, 4-(8-(((3R)-1-(2-hydroxypropyl)piperidin-3-yl)methoxy)-5-(quinoxalin-6-yl)imidazo[1,5-a]pyridin-6-yl)benzonitrile] gave an IC50 of at most 50 nM.
Molecule `Cc1nc2cc(-c3c(-c4ccc(C#N)cc4)cc(OC[C@@H]4CCCN(C)C4)c4cncn34)ccc2n1C` [Example 153, 4-(5-(1,2-dimethyl-1H-benzimidazol-5-yl)-8-{[(3R)-1-methylpiperidin-3-yl]methoxy}imidazo[1,5-a]pyridin-6-yl)benzonitrile] displayed a concentration for half-maximal inhibition (IC50) of at most 50 nM.
As to `CCOc1ccc(-c2c(-c3ccc(C#N)cc3)nc(N3CCC(N(C)C)CC3)c3cncn23)cn1` [Example 99, 4-[8-[4-(dimethylamino)piperidin-1-yl]-5-(6-ethoxypyridin-3-yl)imidazo[1,5-a]pyrazin-6-yl]benzonitrile], the half-maximal inhibitory concentration (IC50) was at most 50 nM.
For `Cc1ccc(-c2c(-c3ccc(C#N)cc3)nc(N3CCC(N(C)C)CC3)c3cncn23)c(CO)c1` [Example 92, 4-{8-[4-(dimethylamino)piperidin-1-yl]-5-[2-(hydroxymethyl)-4-methylphenyl]imidazo[1,5-a]pyrazin-6-yl}benzonitrile] the value was at most 50 nM; for `CN1CCC[C@@H](COc2nc(-c3ccc(C#N)cc3)c(-c3cnc4c(c3)OCCN4C)n3cncc23)C1` [Example 29, 4-(5-(4-methyl-3,4-dihydro-2H-pyrido[3,2-b][1,4]oxazin-7-yl)-8-{[(3R)-1-methylpiperidin-3-yl]methoxy}imidazo[1,5-a]pyrazin-6-yl)benzonitrile], at most 50 nM; for `CN(C)[C@H]1CCN(c2nc(-c3ccc(C#N)cc3)c(-c3cc4oc(=O)n(C)c4cc3F)n3cncc23)C1` [Example 113, 4-[8-[(3S)-3-(dimethylamino)pyrrolidin-1-yl]-5-(5-fluoro-3-methyl-2-oxo-2,3-dihydro-1,3-benzoxazol-6-yl)imidazo[1,5-a]pyrazin-6-yl]benzonitrile], at most 50 nM.
Turning to `Cc1ccc(-c2c(-c3ccc(C#N)cc3)nc(N3CCC(N(C)C)CC3)c3cncn23)cc1CO` [Example 91, 4-{8-[4-(dimethylamino)piperidin-1-yl]-5-[3-(hydroxymethyl)-4-methylphenyl]imidazo[1,5-a]pyrazin-6-yl}benzonitrile], the 50% inhibitory concentration (IC50) was at most 50 nM.
Molecule `Cc1ccc(-c2c(-c3ccc(C#N)cc3)nc(OC[C@@H]3CCCN(C)C3)c3cncn23)cc1CO` [Example 42, 4-(5-[3-(hydroxymethyl)-4-methylphenyl]-8-{[(3R)-1-methylpiperidin-3-yl]methoxy}imidazo[1,5-a]pyrazin-6-yl)benzonitrile] yielded an IC50 of at most 50 nM.
`CN1CCC[C@@H](COc2cc(-c3ccc(C#N)cc3)c(-c3ccc(N(C)C)nc3)n3cncc23)C1` [Example 80, 4-(5-[6-(dimethylamino)pyridin-3-yl]-8-{[(3R)-1-methylpiperidin-3-yl]methoxy}imidazo[1,5-a]pyridin-6-yl)benzonitrile] returned a 50% inhibitory concentration (IC50) of at most 50 nM.
